Reference: paper PMC12655172, “Borylated 5-Membered Ring Iminosugars: Synthesis and Biological Evaluation for Glycosidase Inhibition and Anticancer Properties for Application in Boron Neutron Capture Therapy (BNCT)—Part 2” (Pharmaceuticals, 2025)

Experiments:
Type in all cases: biochemical
[1] = test system: T1, trehalase (porcine kidney); assay: Glycosidase inhibition (Table 2 panel)
T1 construct: purchased Sigma-Aldrich; host or cells: porcine kidney
Excerpt: (§1) The enzymes α-D-glucosidase (yeast), β-D-glucosidases (almond, bovine liver), α-D-galactosidase (coffee beans), β-D-galactosidase (bovine liver), α-D-mannosidase (Jack bean), β-D-mannosidase (snail), α-L-rhamnosidase (P. decumbens), α-L-fucosidase (bovine kidney), trehalase (porcine kidney), β-D-glucuronidases (E. coli, bovine liver), amyloglucosidase (A. niger), para-nitrophenyl glycosides, and various disaccharides were purchased from Sigma-Aldrich Co (St. Louis, MO, USA).
(§2) Brush border membranes were prepared from the rat small intestine according to the method of Kessler et al., and were assayed at pH 6.8 for rat intestinal maltase using maltose. For rat intestinal maltase, porcine kidney trehalase, and A. niger amyloglucosidase activities, the reaction mixture contained maltose (25 μM) and the appropriate amount of enzyme, and the incubations were performed for 10–30 min at 37 °C. The reaction was stopped by heating at 100 °C for 3 min. After centrifugation (600 g; 10 min), the resulting reaction mixture was added to the Glucose CII-test Wako (Wako Pure Chemical Ind., Osaka, Japan). The absorbance at 505 nm was measured to determine the amount of the released D-glucose. Other glycosidase activities were determined using an appropriate para-nitrophenyl glycoside as substrate at the optimum pH of each enzyme. The reaction mixture contained the substrate ([…]) and the appropriate amount of enzyme. The reaction was stopped by the addition of Na2CO3 ([…]). The released para-nitrophenol was measured spectrometrically at 400 nm. All reactions were run in […].

[2] = test system: T2, α-D-galactosidase (coffee beans); assay: Glycosidase inhibition (Table 2 panel)
T2 construct: purchased Sigma-Aldrich; host or cells: coffee beans
Excerpt: as §1, §2

[3] = test system: α-D-glucosidase (human lysosome); assay: Glycosidase inhibition (Table 2 panel); details: at 100 μM
Excerpt: as §1, §2

[4] = test system: α-D-glucosidase (rat intestinal maltase); assay: Glycosidase inhibition (Table 2 panel)
Excerpt: as §1, §2

[5] = molecular target: α-D-glucosidase (rice) (Oryza sativa subsp. japonica, UniProt Q653V7); assay: Glycosidase inhibition (Table 2 panel)
Excerpt: as §1, §2

[6] = test system: T3, α-D-mannosidase (Jack bean); assay: Glycosidase inhibition (Table 2 panel)
T3 construct: purchased Sigma-Aldrich; host or cells: Jack bean
Excerpt: as §1, §2

[7] = test system: α-L-rhamnosidase (P. decumbens); assay: Glycosidase inhibition (Table 2 panel)
Excerpt: as §1, §2

[8] = molecular target: T4, β-D-galactosidase (bovine liver) (Bos taurus, UniProt F1MNT6); assay: Glycosidase inhibition (Table 2 panel)
T4 sequence (F1MNT6 1-469): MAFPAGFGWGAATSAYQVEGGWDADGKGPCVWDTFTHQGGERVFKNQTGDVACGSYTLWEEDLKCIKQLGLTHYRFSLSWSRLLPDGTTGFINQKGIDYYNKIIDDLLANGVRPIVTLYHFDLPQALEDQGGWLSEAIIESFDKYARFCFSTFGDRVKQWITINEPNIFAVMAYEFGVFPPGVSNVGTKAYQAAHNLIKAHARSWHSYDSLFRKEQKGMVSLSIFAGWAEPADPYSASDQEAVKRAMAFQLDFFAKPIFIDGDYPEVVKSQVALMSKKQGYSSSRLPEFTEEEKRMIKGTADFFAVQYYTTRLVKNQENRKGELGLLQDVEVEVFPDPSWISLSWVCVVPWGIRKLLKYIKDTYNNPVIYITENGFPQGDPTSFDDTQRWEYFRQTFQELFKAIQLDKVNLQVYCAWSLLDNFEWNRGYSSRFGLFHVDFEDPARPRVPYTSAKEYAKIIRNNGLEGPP
Excerpt: as §1, §2

[9] = test system: β-D-glucosidase (almond); assay: Glycosidase inhibition (Table 2 panel)
Excerpt: as §1, §2

[10] = molecular target: T5, β-D-glucosidase (bovine liver) (Bos taurus, UniProt F1MNT6); assay: Glycosidase inhibition (Table 2 panel)
T5 sequence (F1MNT6 1-469): T4 sequence (F1MNT6 1-469)
Excerpt: as §1, §2

[11] = test system: β-D-glucuronidase (bovine liver); assay: Glycosidase inhibition (Table 2 panel)
Excerpt: as §1, §2

[12] = test system: β-D-mannosidase (snail); assay: Glycosidase inhibition (Table 2 panel)
Excerpt: as §1, §2

[13] = test system: T6, amyloglucosidase (A. niger); assay: Glycosidase inhibition (Table 2 panel)
T6 construct: purchased Sigma-Aldrich
Excerpt: as §1
as §2, with “For rat intestinal maltase, porcine kidney trehalase, and A. niger amyloglucosidase activities, the reaction mixture contained maltose (25 μM) and the appropriate amount of enzyme, and the incubations were performed for 10–30 min at 37 °C.” left out, “The absorbance at 505 nm was measured to determine the amount of the released D-glucose.” left out

[14] = molecular target: T7, α-D-glucosidase (yeast) (Saccharomyces cerevisiae, UniProt P53341); assay: Glycosidase inhibition (Table 2 panel)
T7 construct: purchased Sigma-Aldrich
Excerpt: as §1
as §2, with “For rat intestinal maltase, porcine kidney trehalase, and A. niger amyloglucosidase activities, the reaction mixture contained maltose (25 μM) and the appropriate amount of enzyme, and the incubations were performed for 10–30 min at 37 °C.” left out, “The absorbance at 505 nm was measured to determine the amount of the released D-glucose.” left out

[15] = test system: T8, β-D-glucuronidase (E. coli); assay: Glycosidase inhibition (Table 2 panel)
T8 construct: purchased Sigma-Aldrich
Excerpt: as §1
as §2, with “For rat intestinal maltase, porcine kidney trehalase, and A. niger amyloglucosidase activities, the reaction mixture contained maltose (25 μM) and the appropriate amount of enzyme, and the incubations were performed for 10–30 min at 37 °C.” left out, “The absorbance at 505 nm was measured to determine the amount of the released D-glucose.” left out

[16] = test system: β-D-glucosidase (human lysosome); assay: Glycosidase inhibition (Table 2 panel); details: at 100 μM
[17] = test system: β-D-galactosidase (E. coli); assay: Glycosidase inhibition (Table 2 panel); details: at 100 μM
[18] = test system: β-D-glucanase (T. Longibrachiatum); assay: Glycosidase inhibition (Table 2 panel); details: at 100 μM
[19] = test system: N-acetyl-β-D-hexosaminidase (rat intestine); assay: Glycosidase inhibition (Table 3 panel); details: 1 mg/mL aqueous solution; run in water
Summary of the method: (§3)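 Each glycosidase received […] para-nitrophenyl substrate in citrate/phosphate buffer at its optimum pH plus 1 mg/mL extract solution, at 27 °C. After stopping with glycine (pH 10.4) during the exponential phase, 405 nm absorbance was read; values are means of three replicates.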

[20] = test system: α-D-glucosidase (rat intestine); assay: Glycosidase inhibition (Table 3 panel); details: 1 mg/mL aqueous solution; run in water
Summary of the method: as §3

[21] = read-out: inhibition % α-D-Glucosidase Yeast
[22] = listed as of the 1000 μM series

α-D-glucosidase (rice), sequence (Q653V7 34-885): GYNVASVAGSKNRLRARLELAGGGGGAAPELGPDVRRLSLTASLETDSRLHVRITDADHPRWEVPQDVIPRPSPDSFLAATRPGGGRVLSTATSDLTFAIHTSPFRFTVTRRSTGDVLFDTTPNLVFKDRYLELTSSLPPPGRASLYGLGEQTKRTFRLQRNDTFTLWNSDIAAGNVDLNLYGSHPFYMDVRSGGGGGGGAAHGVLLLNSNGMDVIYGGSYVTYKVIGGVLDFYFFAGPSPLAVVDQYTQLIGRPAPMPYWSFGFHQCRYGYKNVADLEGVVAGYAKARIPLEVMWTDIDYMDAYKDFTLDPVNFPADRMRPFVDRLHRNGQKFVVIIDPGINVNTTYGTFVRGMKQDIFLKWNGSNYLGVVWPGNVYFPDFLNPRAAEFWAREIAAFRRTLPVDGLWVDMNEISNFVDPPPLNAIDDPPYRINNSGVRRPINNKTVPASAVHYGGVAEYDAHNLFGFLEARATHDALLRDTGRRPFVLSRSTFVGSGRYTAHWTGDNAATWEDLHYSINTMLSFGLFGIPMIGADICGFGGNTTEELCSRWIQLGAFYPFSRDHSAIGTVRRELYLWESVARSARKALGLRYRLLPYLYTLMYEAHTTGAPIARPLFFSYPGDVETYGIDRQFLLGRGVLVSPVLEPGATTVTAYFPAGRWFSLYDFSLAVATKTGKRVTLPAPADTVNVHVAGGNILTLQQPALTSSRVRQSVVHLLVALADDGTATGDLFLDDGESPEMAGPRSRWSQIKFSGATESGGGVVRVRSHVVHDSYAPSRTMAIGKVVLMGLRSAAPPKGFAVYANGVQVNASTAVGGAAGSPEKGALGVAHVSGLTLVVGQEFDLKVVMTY
T7 sequence (P53341 whole entry): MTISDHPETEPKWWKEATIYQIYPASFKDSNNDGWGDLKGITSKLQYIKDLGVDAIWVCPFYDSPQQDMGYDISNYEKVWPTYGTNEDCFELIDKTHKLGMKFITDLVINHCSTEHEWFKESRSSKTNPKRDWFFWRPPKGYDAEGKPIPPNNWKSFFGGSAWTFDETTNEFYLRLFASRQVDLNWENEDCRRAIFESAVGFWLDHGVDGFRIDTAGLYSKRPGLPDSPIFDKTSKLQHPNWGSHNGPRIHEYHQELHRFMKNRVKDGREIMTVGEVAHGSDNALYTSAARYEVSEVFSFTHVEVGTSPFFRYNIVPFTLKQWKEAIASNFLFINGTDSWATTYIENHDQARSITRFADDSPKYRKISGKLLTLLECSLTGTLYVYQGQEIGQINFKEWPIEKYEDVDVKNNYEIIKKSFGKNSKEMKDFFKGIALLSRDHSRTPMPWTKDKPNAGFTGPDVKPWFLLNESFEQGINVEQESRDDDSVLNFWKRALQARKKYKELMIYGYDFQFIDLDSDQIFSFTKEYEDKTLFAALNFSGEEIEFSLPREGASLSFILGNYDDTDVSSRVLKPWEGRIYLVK

Compound	inhibition % Trehalase Porcine Kidney ([1]; at 100 μM)	inhibition % Trehalase Porcine Kidney ([1]; at 1000 μM)	inhibition % α-D-Galactosidase Coffee Beans ([2]; at 100 μM)	inhibition % α-D-Galactosidase Coffee Beans ([2]; at 1000 μM)	inhibition % α-D-Glucosidase Human Lysosome [3]	inhibition % α-D-Glucosidase Rat Intestinal Maltase ([4]; at 100 μM)	inhibition at 100 µM ([5]; at 100 μM) [%]	inhibition % α-D-Mannosidase Jack Bean ([6]; at 100 μM)	inhibition % α-D-Mannosidase Jack Bean ([6]; at 1000 μM)	inhibition % α-L-Rhamnosidase P. decumbens ([7]; at 100 μM)	inhibition % β-D-Glucosidase Almond ([9]; at 100 μM)	inhibition % β-D-Glucuronidase Bovine Liver ([11]; at 100 μM)	inhibition % β-D-Mannosidase Snail ([12]; at 100 μM)	inhibition % Amyloglucosidase A. niger ([13]; at 100 μM)	inhibition % β-D-Glucuronidase E. coli ([15]; at 100 μM)	inhibition % β-D-Glucosidase Human Lysosome [16]	inhibition % β-D-Galactosidase E. coli [17]	inhibition % β-D-Glucanase T. Longibrachiatum [18]	Percentage inhibition N-Acetyl-β-D-Hexosaminidase Rat Intestine [19] [%]	Percentage inhibition α-D-Glucosidase Rat Intestine [20] [%]	other results
CC1(C)O[C@H]2O[C@H]3[C@@H]([C@H]2O1)N(Cc1ccccc1B1OC(C)(C)C(C)(C)O1)C[C@H]3O [ortho 2, N-(2-Methylphenylboronic acid pinacol ester)-3,6-dideoxy-3,6-imino-1,2-O-isopropylidene-α-D-gulofuranose]	^cNI ^d(5.6%)	^aNI ^b(1.8%)	^cNI ^d(0%)	^aNI ^b(2.9%)	^cNI ^d(3.3%)	^cNI ^d(15.5%)	0	^cNI ^d(9.4%)	^aNI ^b(1.3%)	^cNI ^d(1.5%)	^cNI ^d(35%)	^cNI ^d(2.2%)	^cNI ^d(0%)	^cNI ^d(0%)	^cNI ^d(4.1%)	^cNI ^d(5.6%)	^cNI ^d(8.8%)	^cNI ^d(21%)	13.8	−6.7	inhibition % α-D-Glucosidase Rat Intestinal Maltase ([4]; at 1000 μM): ^aNI ^b(0%); inhibition at 1000 µM ([5]; at 1000 μM): 0%; inhibition % α-L-Rhamnosidase P. decumbens ([7]; at 1000 μM): ^aNI ^b(2.0%); inhibition at 1000 µM ([8]; at 1000 μM): 21.8%; inhibition % β-D-Glucosidase Almond ([9]; at 1000 μM): ^aNI ^b(7.2%); inhibition at 100 µM ([10]; at 100 μM): 4.9%; inhibition at 1000 µM ([10]; at 1000 μM): 19.7%; inhibition % β-D-Glucuronidase Bovine Liver ([11]; at 1000 μM): ^aNI ^b(8.4%); inhibition % β-D-Mannosidase Snail ([12]; at 1000 μM): ^aNI ^b(7.8%); inhibition % Amyloglucosidase A. niger ([13]; at 1000 μM): ^aNI ^b(3.2%); inhibition at 100 µM [14, 21]: 1%; inhibition at 1000 µM [14, 21]: 0%; inhibition % β-D-Glucuronidase E. coli ([15]; at 1000 μM): ^aNI ^b(5.2%)
OC[C@H](O)[C@@H]1[C@H](O)[C@H](O)CN1Cc1ccccc1B(O)O [ortho 4, N-(2-Methylphenylboronic acid)-1,4-dideoxy-1,4-imino-L-gulitol]	^cNI ^d(0%)	^aNI ^b(0%)	^cNI ^d(0%)	^aNI ^b(2.7%)	^cNI ^d(2.2%)	^cNI ^d(0%)	0	^cNI ^d(5.6%)	^aNI ^b(0.4%)	^cNI ^d(4.9%)	^cNI ^d(2.6%)	^cNI ^d(0%)	^cNI ^d(5.3%)	^cNI ^d(0%)	^cNI ^d(0%)	^cNI ^d(0%)	^cNI ^d(14%)	^cNI ^d(0%)	−0.2	17.4	IC50 [5, 22]: 622 µM; inhibition % α-L-Rhamnosidase P. decumbens ([7]; at 1000 μM): ^aNI ^b(9.5%); inhibition at 100 µM ([8]; at 100 μM): 3.3%; inhibition % β-D-Glucosidase Almond ([9]; at 1000 μM): ^aNI ^b(40.1%); inhibition at 100 µM ([10]; at 100 μM): 3.3%; inhibition at 1000 µM ([10]; at 1000 μM): 25.7%; inhibition % β-D-Glucuronidase Bovine Liver ([11]; at 1000 μM): ^aNI ^b(0.9%); inhibition % β-D-Mannosidase Snail ([12]; at 1000 μM): ^aNI ^b(2.3%); inhibition % Amyloglucosidase A. niger ([13]; at 1000 μM): ^aNI ^b(0%); IC50 [14, 22]: 784 µM; inhibition at 100 µM [14, 21]: 0%; inhibition % β-D-Glucuronidase E. coli ([15]; at 1000 μM): ^aNI ^b(31.8%)
CC1(C)O[C@H]2O[C@H]3[C@@H]([C@H]2O1)N(Cc1ccccc1B(O)O)C[C@H]3O [ortho 5]	^cNI ^d(4.9%)	–	^cNI ^d(8.5%)	–	^cNI ^d(0%)	^cNI ^d(0%)	6.7	^cNI ^d(12.9%)	–	^cNI ^d(0%)	^cNI ^d(2.7%)	^cNI ^d(0%)	^cNI ^d(7.0%)	^cNI ^d(4.9%)	^cNI ^d(1.2%)	^cNI ^d(3.5%)	^cNI ^d(0%)	^cNI ^d(5.2%)	5.2	4.2	inhibition at 100 µM ([8]; at 100 μM): 6.1%; inhibition at 100 µM ([10]; at 100 μM): 13.4%; inhibition at 100 µM [14, 21]: 0%
N-(3-Hydroxyphenyl)-1,4-dideoxy-1,4-imino-L-gulitol [meta 7]	^cNI ^d(0%)	^aNI ^b(1.9%)	^cNI ^d(1.8%)	^aNI ^b(1.7%)	^cNI ^d(0%)	^cNI ^d(0%)	–	^cNI ^d(0%)	^aNI ^b(0%)	^cNI ^d(3.8%)	^cNI ^d(0%)	^cNI ^d(1.2%)	^cNI ^d(0%)	^cNI ^d(5.1%)	^cNI ^d(0.5%)	^cNI ^d(9.9%)	^cNI ^d(0%)	^cNI ^d(0%)	−2.5	−10.7	inhibition % α-D-Glucosidase Rat Intestinal Maltase ([4]; at 1000 μM): ^aNI ^b(7.2%); inhibition % α-D-Glucosidase Rice ([5]; at 100 μM): ^cNI ^d(0%); inhibition % α-D-Glucosidase Rice ([5]; at 1000 μM): ^aNI ^b(5.0%); inhibition % α-L-Rhamnosidase P. decumbens ([7]; at 1000 μM): ^aNI ^b(2.1%); inhibition % β-D-Galactosidase Bovine Liver ([8]; at 100 μM): ^cNI ^d(17.5%); inhibition % β-D-Galactosidase Bovine Liver ([8]; at 1000 μM): ^aNI ^b(8.1%); inhibition % β-D-Glucosidase Almond ([9]; at 1000 μM): ^aNI ^b(9.6%); inhibition % β-D-Glucosidase Bovine Liver ([10]; at 100 μM): ^cNI ^d(0%); inhibition % β-D-Glucosidase Bovine Liver ([10]; at 1000 μM): ^aNI ^b(13.6%); inhibition % β-D-Glucuronidase Bovine Liver ([11]; at 1000 μM): ^aNI ^b(0%); inhibition % β-D-Mannosidase Snail ([12]; at 1000 μM): ^aNI ^b(0%); inhibition % Amyloglucosidase A. niger ([13]; at 1000 μM): ^aNI ^b(2.1%); inhibition % α-D-Glucosidase Yeast ([14]; at 100 μM): ^cNI ^d(3.4%); inhibition % α-D-Glucosidase Yeast ([14]; at 1000 μM): ^aNI ^b(4.3%); inhibition % β-D-Glucuronidase E. coli ([15]; at 1000 μM): ^aNI ^b(7.5%)
